Measurements reported in US20260217693A1, “SRPK1 INHIBITORS AND METHODS OF USE” (ALLIANTHERA (SUZHOU) BIOPHARMACEUTICAL CO., LTD., priority 2023, published 2026).
pIC50: −log10 of the molar value.

biological target: SRPK1 (Homo sapiens, UniProt Q96SB4); test: SRPK1 assay, Method 2 (ADP-Glo luminescence); type: biochemical; details: Method 2 (asterisk): substrate Human SRSF1/SF2 0.15 μM, ATP 4 μM, 25° C. for 3 h, test compounds 100 nM top, 3-fold, 10 dose
Protocol: The SPRK1 assay was performed as follows:
Method 2: The assay buffer was prepared. The reference compound was diluted to 1 mM in the assay buffer. The test compounds were prepared at a concentration of 100 μM, then diluted 3-fold. Five nL of compounds/DMSO were transferred to 384-well plate. The reference compound is 1000 nM top concentration, 3-fold, 10 dose. The test compounds are 100 nM top concentration, 3-fold, 10 dose. 2.5 ul of enzyme (SRPK1 final concentration at […]) was added to each well, then the plate was spun down at 1000 rpm and centrifuged for 30 sec. After, 2.5 ul substrate (Human SRSF1/SF2 final concentration of 0.15 μM, ATP final concentration of 4 μM) was added to the plate, spun down at 1000 rpm and centrifuged for 30 sec. The plate was then placed in an incubator at 25° C. for 3 h. Then, 5 μl of ADP-Glo™ Reagent was added to each well, and the plate incubated at room temperature for 60 minutes. After 60 min, 10 μl of Kinase Detection Reagent was added to each well, and the plate was incubated at room temperature for 30 minutes. The luminescence of each well was recorded on Envision.
All assays were performed using Method 1, except where indicated with an asterisk (*) in the below table, indicating Method 2 was used. I.A. indicates an IC50 greater than 30 μM.

SRPK1, sequence (Q96SB4 whole entry): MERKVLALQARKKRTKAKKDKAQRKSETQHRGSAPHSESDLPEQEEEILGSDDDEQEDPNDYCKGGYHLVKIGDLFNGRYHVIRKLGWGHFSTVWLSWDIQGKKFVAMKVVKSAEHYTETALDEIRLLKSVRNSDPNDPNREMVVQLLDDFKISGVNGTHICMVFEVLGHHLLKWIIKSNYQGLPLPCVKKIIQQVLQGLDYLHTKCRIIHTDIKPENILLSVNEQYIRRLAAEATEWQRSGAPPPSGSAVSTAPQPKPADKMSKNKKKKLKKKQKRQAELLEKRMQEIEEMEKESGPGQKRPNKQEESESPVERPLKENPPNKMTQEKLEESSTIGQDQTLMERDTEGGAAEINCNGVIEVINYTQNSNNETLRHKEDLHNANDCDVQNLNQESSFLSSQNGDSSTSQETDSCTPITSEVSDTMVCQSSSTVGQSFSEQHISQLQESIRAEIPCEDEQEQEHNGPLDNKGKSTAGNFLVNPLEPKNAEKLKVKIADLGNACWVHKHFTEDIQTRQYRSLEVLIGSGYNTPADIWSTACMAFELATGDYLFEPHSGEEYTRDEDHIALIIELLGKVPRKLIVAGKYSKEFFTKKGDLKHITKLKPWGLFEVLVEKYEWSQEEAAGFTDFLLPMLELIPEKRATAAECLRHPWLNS

SMILES | pIC50
O=C(Nc1cc(C2CC2)cnc1N1CCC(O)CC1)c1ccc(-c2ccnc(O)c2)o1 [Compound 022] | 8.85
O=C(Nc1cc(C(F)(F)F)cnc1N1CCC(O)CC1)c1ccc(-c2cn[nH]c2)o1 [Compound 053] | 8.70
O=C(Nc1cc(C2CC2)cnc1N1CCC(O)CC1)c1ccc(-c2cn[nH]c2)o1 [Compound 086] | 9.21
CC1(O)CCN(c2ncc(C3CC3)cc2NC(=O)c2ccc(-c3cn[nH]c3)o2)CC1 [Compound 095, N-[5-cyclopropyl-2-(4-hydroxy-4-methyl-1-piperidyl)-3-pyridyl]-5-(1H-pyrazol-4-yl) furan-2-carboxamide] | 9.11
O=C(Nc1cc(C(F)(F)F)cnc1N1CCC(O)CC1)c1ccc(-c2cn[nH]c2)cn1 [Compound 097, N-[2-(4-hydroxy-1-piperidyl)-5-(trifluoromethyl)-3-pyridyl]-5-(1H-pyrazol-4-yl)pyridine-2-carboxamide] | 8.49

The remaining compounds from weak to strong by pIC50, led by results:

pIC50 | SMILES
7.60 | CC1(C(N)=O)CCN(c2ncc(C(F)(F)F)cc2NC(=O)c2ccc(C3CCOCC3)o2)CC1 [Compound 048]
8.40 | Nc1cc(-c2ccc(C(=O)Nc3cc(C(F)(F)F)cnc3N3CCC(O)CC3)o2)ccn1 [Compound 015]
9.03 | Nc1cc(-c2ccc(C(=O)Nc3cc(C4CC4)cnc3N3CCC(O)CC3)o2)ccn1 [Compound 018]
9.61 | Nc1cc(-c2ccc(C(=O)Nc3cc(C4CC4)cnc3N3CCC(O)CC3)o2)cc(N)n1 [Compound 020]
